One sequence from patent US11998600B2, “Enhancing the therapeutic activity of an immune checkpoint inhibitor” (MaineHealth, priority 2015, dated 2024) can be followed below.

In assay [1] the test system is chick chorioallantoic membrane (CAM). Briefly: Chick CAM angiogenesis assay, induction by RGD collagen peptides. Format: in vivo. Particulars: chick CAM. On the procedure: (§1) The chick chorioallantoic membrane (CAM) assays were carried out with some modifications (19). For all experiments CAMs of 10-day-old chick embryos obtained from Charles River (North Franklin, CT) were separated from the shell membrane. Filter discs either non-treated (inflammation assays) pretreated (angiogenesis assays) with cortisone acetate (3.0 mg/ml) containing RPMI only or FGF-2 (40 ng). CAMs were either non-treated or treated topically with Mab XL313, XL166 or a non-specific control antibody (10 μg/embryo every 24 h for three consecutive treatments). […] At the end of the incubation period the embryos were sacrificed and the CAM tissues were analyzed. Angiogenesis was quantified by counting the number of angiogenic branching blood vessels within the area of the filter disc. The angiogenic index was determined by subtracting the mean number of blood vessel branch points from untreated CAMs from each experimental condition. Eight to twelve embryos were used per condition and experiments were repeated at least three times.
To examine this possibility, the effects of the RGDKGE (SEQ ID NO. 1) containing collagen peptide on angiogenesis and inflammation in the chick CAM were assessed.

For assay [2], the system named is P38MAPK. As to the kind of experiment: Phosphorylated P38MAPK in CAM tissue lysates, Western blot. Particulars: Image-J quantification, FIG. 6B. Format: in vivo, chick. On the procedure:
as §1
Whole cell and CAM tissue lysates were collected in RIPA buffer supplemented with 1× protease inhibitor and 1× phosphatase inhibitor and were run on polyacrylamide gels using denaturing conditions. […] Western blot bands were quantified using Image J software based on pixel intensity.
On the technique in general: In western blotting, separated proteins are transferred to a membrane and probed.

For assay [3], the system named is P38MAPK. Briefly: P38MAPK phosphorylation in HUVECs attached to collagen peptides, Western blot. Format: cell-based, human. The following applies: cells attached to immobilized peptide; FIG. 6D. On the procedure: (§2) Endothelial cells (HUVECs or HRMVECs) were incubated in serum free media with 1 mM MgCl2, 0.2 mM MnCl2 in the presence of a Src inhibitor, PP2, (10 μM) a P38MAPK inhibitor, SB202190 (10 μM) or vehicle only (DMSO) for 10 min at 37° C. Treated cells were then seeded on to immobilized P-1 and P-2 and lysates were collected at 15 min.
Whole cell and CAM tissue lysates were collected in RIPA buffer supplemented with 1× protease inhibitor and 1× phosphatase inhibitor and were run on polyacrylamide gels using denaturing conditions. Prior to loading the gels, 6× sample buffer was added to each of the lysates (final concentration 1×) and boiled for five minutes. Twenty to 50 μg of total protein were loaded into each lane. For detection of proteins larger than 50 kD, 10% gels were used; for proteins smaller than 50 kD 15% gels were used. Gels were run at 60 volts (v) until the dye front passed through the stacking gel, and then the voltage was increased to 100V for the remainder of the separation. Precision Plus protein standards (Bio-Rad) were used to visualize migration. Protein was transferred to nitrocellulose membranes using a wet tank system and blocked for 1 h using 10% non-fat dried milk in tris-buffered saline with 0.01% Tween-20 (TBS-T). […] Western blot bands were quantified using Image J software based on pixel intensity. […]

Assay [4] relates to P38MAPK. As to the kind of experiment: P38MAPK phosphorylation in HRMVEC attached to collagen peptides, Western blot. The assay is classed as cell-based, human. The following applies: cells attached to immobilized peptide; FIG. 6E. On the procedure: as §2
Whole cell and CAM tissue lysates were collected in RIPA buffer supplemented with 1× protease inhibitor and 1× phosphatase inhibitor and were run on polyacrylamide gels using denaturing conditions. Prior to loading the gels, 6× sample buffer was added to each of the lysates (final concentration 1×) and boiled for five minutes. Twenty to 50 μg of total protein were loaded into each lane. […] Gels were run at 60 volts (v) until the dye front passed through the stacking gel, and then the voltage was increased to 100V for the remainder of the separation. Precision Plus protein standards (Bio-Rad) were used to visualize migration. Protein was transferred to nitrocellulose membranes using a wet tank system and blocked for 1 h using 10% non-fat dried milk in tris-buffered saline with 0.01% Tween-20 (TBS-T). […] Membranes were washed 3 times in TBS-T for five minutes. Blots were then incubated with HRP conjugated secondary antibodies (1:15000) in 1% non-fat milk in TBS-T for 1 h. […] Western blot bands were quantified using Image J software based on pixel intensity.

In assay [5] the test system is YAP. As to the kind of experiment: Nuclear YAP in HUVECs attached to collagen peptides. The assay is classed as cell-based, human. On the procedure:
Whole cell and CAM tissue lysates were collected in RIPA buffer supplemented with 1× protease inhibitor and 1× phosphatase inhibitor and were run on polyacrylamide gels using denaturing conditions. Prior to loading the gels, 6× sample buffer was added to each of the lysates (final concentration 1×) and boiled for five minutes. Twenty to 50 μg of total protein were loaded into each lane. […] Gels were run at 60 volts (v) until the dye front passed through the stacking gel, and then the voltage was increased to 100V for the remainder of the separation. Precision Plus protein standards (Bio-Rad) were used to visualize migration. Protein was transferred to nitrocellulose membranes using a wet tank system and blocked for 1 h using 10% non-fat dried milk in tris-buffered saline with 0.01% Tween-20 (TBS-T). […] Membranes were washed 3 times in TBS-T for five minutes. Blots were then incubated with HRP conjugated secondary antibodies (1:15000) in 1% non-fat milk in TBS-T for 1 h. Membranes were washed a second time as indicated above and exposed to chemiluminecent substrate for three minutes prior to exposure to autoradiography film in a dark room. Western blot bands were quantified using Image J software based on pixel intensity.

The subject of assay [6] is HUVEC. Briefly: Cell proliferation assay, HUVEC. Format: cell-based, human. The following applies: peptide 100 ng/ml, 24 hours; FIG. 8C. On the procedure:
(§3) HUVECs (WT, shYAP1 or control transfected) or HRMVECs were plated at 2,000 cells per well with complete EGM-2 media containing 2.0% FBS in the absence or presence of P-1, P-2 or P-C (100 ng/ml) and allowed to grow for 24 hours. Cell growth was monitored using a BrdU or MMT assay kits according to manufacturer's instructions. All assays were completed at least three times in triplicate wells.

In assay [7] the test system is HRMVEC. Briefly: Cell proliferation assay, HRMVEC. The assay is classed as cell-based, human. Particulars: peptide 100 ng/ml, 24 hours; FIG. 8D. On the procedure: as §3
For assay [8], the system named is endothelial cells in which YAP was knocked down. Briefly: Cell proliferation assay, endothelial cells transduced with YAP specific shRNA. The assay is classed as cell-based, human. Particulars: soluble peptide (FIG. 8H) or VEGF 50 ng/ml (FIG. 8I). On the procedure:
as §3
Raw cells were transfected with 1 μg of HuSH shRNA plasmids for collagen type I, alpha 2 using Amaxa cell line nucleofector kit V (program #T024). Constructs expressing 21-nucleotide short hairpin RNAs (shRNA) targeting human YAP (shYAP) or non-targeting control (shNT, Sigma-Aldrich, SHC002) were used. Humantargeting shYAP1 lentiviral shRNA was obtained from the Thermo Scientific RNAi consortium (TRCN0000107625). Constructs were packaged into lentivirus, pseudotyped with the vesicular stomatitis virus glycoprotein. Transduction was performed by incubating cells with lentivirus, and stably transduced cells were subsequently used for studies. All cell lines were verified by morphology and mouse and human YAP-specific PCR. […] Endothelial cells were certified mycoplasma-negative by PCR (Lonza), and primary cell cultures were used within the indicated passage numbers. Cells were transduced and selected using puromycin.
Endothelial cells with YAP specific or non-specific shRNAs were transduced.

Consider QGPRGDKGE [Mab P-2], for which, in assay [1] (FIG. 5B), the “dose dependent induction of CAM angiogenesis” value was “dose dependently enhanced angiogenesis” and the “dose of maximum induction of angiogenesis” value is given as 100 ng/CAM. Besides, in assay [1] (peptides 100 ng/ml, FIG. 5C), the “induction of CAM angiogenesis as compared to no treatment” value is on record as “significantly (P>0.05) induced angiogenesis”. For the same sequence, the “increase in phosphorylation of P38MAPK as compared to controls” value in assay [2] is listed as 4 fold. Moreover, the “phosphorylation of P38MAPK in HUVECs, P-2 as compared to P-1” value in assay [3] was “enhanced phosphorylation of P38MAPK”. Also, the “phosphorylation of P38MAPK in HRMVEC, P-2 as compared to P-1” value in assay [4] is “enhanced phosphorylation of P38MAPK”. In addition, the “nuclear localized YAP (immunofluorescence), P-2 as compared to P-1” value in assay [5] (15 minutes after binding, no growth factor, FIG. 8A) is on record as “enhanced level of nuclear localized YAP”. In addition, the “increase of nuclear YAP levels (Western blot), P-2 as compared to P-1” value in assay [5] (nuclear fractions of HUVEC lysates, FIG. 8B) is on record as “approximately 2 fold”. Besides, the “HUVEC growth with soluble peptide” value in assay [6] is on record as “significantly (P<0.05) enhanced endothelial cell growth”. Also, the “HRMVEC growth with soluble peptide” value in assay [7] is reported as “significantly (P<0.05) enhanced endothelial cell growth”. In addition, the “endothelial cell growth in YAP knock down cells” value in assay [8] is “failed to induce growth”.
